In patent publication US9365540B2, “Benzimidazole derivatives as MCH receptor antagonists” (Takeda Pharmaceutical Company Limited, priority 2012, dated 2016) one finds inhibition, inhibition in vivo and PLsis inducing potential data, which are given here for 3 molecules.

For data set [1], the target named is T1, human MCHR1 (Homo sapiens, UniProt Q99705).
T1 construct: expressed in transfected cells; host or cells: CHO dhfr- cells, clone #4
Briefly: MCH receptor 1 antagonistic activity, Ca2+ mobilization assay. It counts as cell-based. Particulars: CHO, test compound 0.1 μM; human MCHR1-expressing CHO cells (clone #4); ligand MCH(4-19) 2 nM; read-out: Inhibitory rate % (0.1 μM). The method, boiled down: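 CHO dhfr− cells stably expressing human MCHR1 (clone #4) were used in a fluorometric Ca2+ mobilization assay. Test compounds were run at 0.1 μM, with antagonism expressed as percent inhibition.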
(In general: Calcium assays in cells follow changes in intracellular calcium, usually with a dye or a luminescent sensor.)

The subject of data set [2] is male diet-induced obese F344/Jcl rats. Briefly: Anorectic effect in male diet-induced obese F344/Jcl rats. The data set is classed as in vivo, rat. Particulars: Rattus norvegicus, po, 48 h, 5 mg/mL suspension at 2 mL/kg, two administrations, food intake for 2 days vs control group, read-out: Food intake suppression rate (%). On the procedure: Evaluation of Anorectic Effect Using Male Diet-Induced Obese F344/Jcl Rats
Male diet-induced obese F344/Jcl rats (44-50 weeks old) fed with a high-fat diet (D12451: Research Diets) from 5 weeks old were used. From before the start of experiment, the rats were singly housed, given a powder high-fat diet (D12451M: Research Diets), and habituated to oral administration with tap water. The food intake from the evening of the day before the start of experiment to the next morning was measured, and the rats were grouped based on both the food intake and the body weight of the previous day. In the evening of the day of the start of experiment and the next day, 0.5% methylcellulose solution was orally administered to the control group, and 0.5% methylcellulose suspension (5 mg/mL) of the test compound was orally administered to the compound administration group at 2 mL/kg (6 per group for both control group and compound administration group). The food intake for 2 days from the initial administration was measured. The food intake inhibition rate of each compound administration group to the control group was calculated.

In data set [3] the test system is HepG2 cells. Description: PLsis (phospholipidosis) inducing potential, NBD-PE uptake. The data set is classed as cell-based. The settings on record: 24 hr exposure, relative value to 10 μM Amiodarone, maximum value per unit concentration. How it is done: Evaluation of PLsis Inducing Potential
DMEM medium, L-glutamine, penicillin-streptomycin, pyruvic acid, and N-(7-nitrobenz-2-oxa-1,3-diazol-4-yl)-1,2-hexadecanoyl-sn-glycero-3-phosphoethanolamine triethylammonium salt (NBD-PE) were purchased from Invitrogen Corporation. As bovine serum albumin (BSA), a product of Thermo Trace Ltd. (Melbourne, Australia) was used, and as Amiodarone, a product of ICN (Costa Mesa, Calif.) was used. A test compound was used in the form of a 10 mM DMSO solution.
FBS was added at a final concentration of 5 vol % to DMEM medium supplemented with L-glutamine, pyruvic acid and penicillin-streptomycin and subjected to the experiment. Culture was performed using 5% carbon dioxide gas-95% air as a gas phase in a CO2 incubator at 37° C. HepG2 cells were suspended in a culture medium at 50×10^4 cells/mL, plated in a 96 well plate at 50 μL/well and precultured for 24 hr. After preculture, the culture medium was removed, a culture medium containing 60 μM NBD-PE was added at 50 μL/well, and a culture medium containing 0.6 μM or 20 μM test compounds were each added at 50 μL/well to HepG2 cells, and the cells were cultured for 24 hr. As a positive control, Amiodarone was used at a final concentration of 10 μM.
After exposure to the test compound for 24 hr, the fluorescence intensity (Ex. 485 nm, Em. 538 nm) of NBD-PE uptaken by the cells was measured by a fluorometer. The measurement value with addition of 0 μM test compound solution was subtracted as a blank, a relative value to the measurement 5 value with addition of 10 μM Amiodarone was calculated, and the maximum value per unit concentration of the test compound was obtained as a phospholipidosis (PLsis) inducing potential.

T1 sequence (Q99705 whole entry): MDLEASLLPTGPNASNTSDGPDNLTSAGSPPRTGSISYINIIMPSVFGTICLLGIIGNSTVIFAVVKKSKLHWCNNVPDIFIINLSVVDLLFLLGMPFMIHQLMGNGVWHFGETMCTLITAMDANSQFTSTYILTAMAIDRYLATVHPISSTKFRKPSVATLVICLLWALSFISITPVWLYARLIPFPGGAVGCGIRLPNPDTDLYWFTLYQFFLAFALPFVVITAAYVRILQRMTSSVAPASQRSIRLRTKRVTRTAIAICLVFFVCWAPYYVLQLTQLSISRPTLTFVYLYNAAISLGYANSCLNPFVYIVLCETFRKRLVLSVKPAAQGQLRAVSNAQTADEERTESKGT

For the molecule `Cn1c(C2CC2)nc2ccc(-n3ccc(OCc4ccc(F)cc4)cc3=O)cc21` [Example 2, 1-(2-Cyclopropyl-1-methyl-1H-benzimidazol-6-yl)-4-((4-fluorobenzyl)oxy)pyridin-2(1H)-one], the inhibition at 0.1 µM in data set [1] was 99%. In addition, the inhibition in vivo at 5000 µg/mL, 10 mg/kg in data set [2] is 27.8%. This molecule had a PLsis inducing potential in data set [3] of 2.2.
In the same order, the values of `CCc1nc2ccc(-n3ccc(OCc4ccc(F)cc4)cc3=O)cc2n1C` [Example 63, 1-(2-Ethyl-1-methyl-1H-benzimidazol-6-yl)-4-((4-fluorobenzyl)oxy)pyridin-2(1H)-one] are 100%, 45.5% and 1.6.
The corresponding values for `Cc1nc2ccc(-n3ccc(OCc4ccc(F)cc4)cc3=O)cc2n1C` [Example 254, 1-(1,2-Dimethyl-1H-benzimidazol-6-yl)-4-((4-fluorobenzyl)oxy)pyridin-2(1H)-one] are 95%, 38.7% and 1.7.
